Publication PMC7600264, “Quasi-Irreversible Inhibition of CYP2D6 by Berberine” (Pharmaceutics, 2020)
Where two headings read alike, the source gives them in different places.

How the values were obtained:
[1] = tested on: microsomal metabolism of nebivolol; assay: BBR-nebivolol interaction in pooled HLM; format: in vitro ADME, human; details: nebivolol 1 µM; pooled HLM 1 mg/mL; BBR 0, 1, 3, 10 µM; 60 min
Experimental: The HDI between BBR and nebivolol was assessed using pooled HLM, where nebivolol (1 μM) was incubated with HLM (1 mg/mL) and NADPH-generating system (see Section 2.6) in phosphate buffer (0.1 M; pH 7.4) with BBR at various concentrations (0, 1, 3, and 10 μM). The mixture (total volume of 200 µL) was incubated at 37 °C for 60 min in a shaking water bath (100 rpm), following a 5 min of pre-incubation at 37 °C. […] The mass transitions of nebivolol and CBZ were m/z 406 to 151 and m/z 237 to 194, respectively.

CYP2D6 [2] = biological target: T1, CYP2D6 (Homo sapiens, UniProt P10635); details: microsomes
Experimental: (§1) BBR (0–16 μM) was incubated with pooled HLM (0.2 mg/mL), NADPH (1 mM), and dextromethorphan (5 µM) in phosphate buffer (0.1 M; pH 7.4) for various incubation time periods (0–30 min). The apparent inactivation rate constants (kobs) at various BBR concentrations were estimated by fitting first-order kinetics to the relative enzyme activity vs. incubation time profiles. The rate of enzyme inactivation (kinact) and the inhibition constant (KI) were determined by fitting the following Equation (1) to the kobs values at various inhibitor concentrations Equation (1) [31]:(1) 1/kobs=KI/kinact×1/I+1/kinact

CYP2D6 [3] = biological target: T1, CYP2D6; details: microsomes; remark: listed apart in the source
Experimental: The pre-incubation mixtures consisting of potassium phosphate buffer (0.1 M; pH 7.4), HLM (1 mg/mL), NADPH (1 mM), and inhibitor (total volumes of 180 µL per well) were incubated at 37 °C for 30 min. To verify the reversibility of quasi-irreversible inhibition, potassium ferricyanide (2 mM) was co-incubated with the mixture for 10 min at 37 °C, from which microsomes were re-isolated by ultracentrifugation at 100,000 g for 60 min at 4 °C. The resulting microsomal pellet was washed twice with potassium phosphate buffer (0.1 M; pH 7.4). The obtained microsomes (adjusted to 0.2 mg/mL) were incubated with CYP substrates (25 µM of dextromethorphan for CYP2D6 and 25 µM of MDZ for CYP3A4) and NADPH (1 mM) in potassium phosphate buffer (0.1 M; pH 7.4) for 5 min to measure the CYP activity. The reactions were terminated by the addition of ACN (200 µL) containing CBZ (100 nM).

CYP2D6 [4] = biological target: T1, CYP2D6; parameters: method as in PMID 25145883; details: HLM; previous study; cited from earlier work
[5] = parameters: method as in PMID 19589224, PMID 12562448, PMID 27283523; details: clinical PK studies; single administration of BBR; highly variable; cited from earlier work
CYP2D6 [6] = biological target: T1, CYP2D6; assay: in vitro; details: pH 7.4
Experimental: (§2) Pre-incubation was performed in pooled HLM (0.2 mg/mL) added with BBR, THB, TFD, or DMB, or rhCYP2D6 (10 pmol/mL) added with BBR, with or without NADPH (1 mM) in phosphate buffer (0.1 M; pH 7.4) for 30 min. Then, the CYP2D6 substrate (5 µM of dextromethorphan) and NADPH (1 mM) were added to the mixture and incubated for another 10 min. All incubations were carried out at 37 °C in a shaking water bath (100 rpm) using eight-well tube strips placed in an 8 × 12 rack, where the final volume of each reaction mixture was 200 µL. […] The enzyme reactions were quenched by adding an aliquot (200 µL) of ice-cold ACN containing CBZ (100 nM) as an IS. The samples were centrifuged, and the concentration of CYP2D6 metabolite (i.e., dextrorphan, produced by O-demethylation of dextromethorphan) in supernatants were analyzed using the LC-MS/MS method described in Section 2.2.

CYP2D6 [7] = biological target: T1, CYP2D6; assay: Kinetic parameters for MDI of CYP2D6 in pooled HLM
Experimental: as §1

[8] = biological target: recombinant human CYP2D6 (rhCYP2D6) (Homo sapiens, UniProt P10635); assay: Metabolism-dependent CYP2D6 inhibition assay (IC50 shift) using rhCYP2D6
Experimental: as §2

[9] = format: in vitro ADME, human; details: precursor 1 µM in pooled HLM with NADPH-generating system, mean ± SD
Experimental: Table 3. Putative M1 metabolite produced in pooled HLM incubated with thalifendine or
Precursor molecules Incubation time (min)a M1 signal at m/z 310 (103 × cps)b
Demethyleneberberine 0 107 ± 3
a Thalifendine or demethyleneberberine (1 μM) was incubated with pooled HLM in the presence of
NADPH-generating system; b Each value represents the mean ± SD for three separate samples. […]

T1 sequence (P10635 whole entry): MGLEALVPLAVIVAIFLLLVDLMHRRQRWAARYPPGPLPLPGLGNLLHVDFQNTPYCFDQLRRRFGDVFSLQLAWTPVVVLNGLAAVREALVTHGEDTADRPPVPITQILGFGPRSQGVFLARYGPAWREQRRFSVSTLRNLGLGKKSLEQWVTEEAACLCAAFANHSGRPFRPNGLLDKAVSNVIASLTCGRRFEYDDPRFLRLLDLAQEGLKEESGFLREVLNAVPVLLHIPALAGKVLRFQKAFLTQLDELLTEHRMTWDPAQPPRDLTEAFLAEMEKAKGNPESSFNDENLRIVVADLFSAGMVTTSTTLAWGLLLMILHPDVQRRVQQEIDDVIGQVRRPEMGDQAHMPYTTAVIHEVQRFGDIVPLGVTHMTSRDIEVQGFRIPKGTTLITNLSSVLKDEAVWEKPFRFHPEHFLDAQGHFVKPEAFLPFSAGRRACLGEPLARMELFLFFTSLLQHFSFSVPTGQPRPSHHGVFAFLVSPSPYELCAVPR
Chain of recombinant human CYP2D6 (rhCYP2D6) (P10635 whole entry): as above

With `COc1ccc2cc3[n+](cc2c1OC)CCc1cc2c(cc1-3)OCO2` [BBR, berberine] the “Effect on microsomal clearance of nebivolol” value [1] was “significantly inhibited”, the “kinact/KI against CYP2D6” value (CYP2D6 [2]) was 97.2 M⁻¹ s⁻¹ and the “Mode of CYP2D6 inhibition” value (CYP2D6 [3]) was “quasi-irreversible”. The IC50 (CYP2D6 [4]) was about 23.5 µM, the Maximum plasma concentration [5] was “less than 1 nM to more than 1 µM” and the IC50 shift at 10 min (CYP2D6 [6]) was about 7.5. For the same compound, the Ki (CYP2D6 [7]) was 4.29 µM, the kinact (CYP2D6 [7]; human, pooled human liver microsomes, pH 7.4, probe dextromethorphan (5 µM)) was 0.000417 s⁻¹ and the IC50 ([8]; IC50 against rhCYP2D6, pre-incubation with NADPH, 30 min pre-incubation with NADPH) was 1.73 µM. For the same compound, the IC50 ([8]; IC50 against rhCYP2D6, pre-incubation without NADPH, 30 min pre-incubation in the absence of NADPH) was 5.31 µM.

For `COc1ccc2cc3[n+](cc2c1OC)CCc1cc(O)c(O)cc1-3` [DMB, demethyleneberberine], the “M1 signal at m/z 310” value ([9]; incubation time 0 min) was 107 ± 3 103 × cps and the “M1 signal at m/z 310” value ([9]; incubation time 30 min) was 432 ± 27 103 × cps.
